≈ marks a conversion by molar mass, not a printed value. Residues, ends and D or L forms follow the SMILES beside them.
Tests used:
[1] = system: C. albicans ATCC 90028; test: microbe, parasite or virus in culture; format: cell-based, Candida albicans
Protocol: (§1) Both antibacterial and antifungal MIC assays were performed by a broth microdilution plate based method as per CLSI guidelines for antimicrobial susceptibility testing.[53],[54] […] Full assay details are included in the Supporting Information with a full list of strains tested in Table S1.
(§2) Antibacterial assay (Minimum Inhibitory Concentration [MIC]).
(§3) MIC assay was performed by a broth microdilution plate based method as per CLSI guidelines for antimicrobial susceptibility testing of aerobic bacteria.1 Compounds were prepared at 1.28 mg/mL solution in water. The tested strains, Table S1, were cultured in Luria broth (LB) (In Vitro Technologies, USB75852), at 37 °C overnight. A sample of culture was then diluted 40Pfold in fresh Muller Hinton broth (MHB) (Bacto laboratories, 211443) and incubated at 37 °C for 1.5P2 h. The compounds were serially diluted twoPfold across the wells, with compound concentrations ranging from 0.015 µg/mL to 512 µg/mL, plated in duplicate. The resultant midPlog phase cultures were diluted to the final concentration of 1×10^6 CFU/mL, then 50 µL was added to each well of the compoundP containing 96Pwell plates (Corning 3641, NonPbinding Surface [NBS]), giving a final compound concentration range of 0.008 µg/mL to 256 µg/mL and 5x10^5 CFU/mL. All the plates were covered and incubated at 37 °C for 18 h. MICs were determined visually, being defined as the lowest concentration showing no visible growth. Resazurin was added at 0.001% final concentration to each well and incubated for 2 h before MICs were rePread for confirmation using the colour change from blue to pink to indicate wells containing viable cells. The resazurin assay was added in some wells where some form of precipitate was present in otherwise clear wells, making it difficult to ascertain which wells had visible […]
Antifungal assay (Minimum Inhibitory Concentration [MIC]). MIC assay was performed by a broth microdilution plate based method as per CLSI guidelines for antimicrobial susceptibility testing.2 Fungi strains, Table S1, were cultured for 3 days on Yeast ExtractPPeptone Dextrose (YPD) (SigmaPAldrich, Y1500) agar at 30 °C. A yeast suspension of 1x10^6 to 5x10^6 CFU/mL was prepared from five colonies. These stock suspensions were diluted with Yeast Nitrogen Base (YNB) (Becton Dickinson, 233520) broth to a final concentration of 2.5 ×10^3 CFU/mL. All samples, compounds and standards were plated in 96Pwell plates (Corning 3641, NonPbinding Surface [NBS]), by adding 10 µL of 1.28 mg/mL stock solution to each well and 90 µL of media. Then, the samples were serial diluted (1:2) in 12 concentrations across the plate. The standard antifungal ranged from 256 […]
µg/mL to 0.12 µg/mL and compounds from 128 µg/mL to 0.06 µg/mL with final volumes of 50 µL per well, plated in duplicate. Then, 50 µL of the fungi suspension that was previously prepared in YNB broth to the final concentration of 2.5×10^3 CFU/mL, was added to each well of the compoundPcontaining plates, giving a final standard compound concentration range of 128 µg/mL to 0.06 µg/mL and tested compound from 64 µg/mL to 0.03 µg/mL. Plates were covered and incubated at 35 °C for 24 h. Candida albicans MICs were determined by measuring the absorbance at OD530. For Cryptococcus neoformans 10 µL of 0.06 % resazurin were added to the 24 h incubated plates. Then, these plates were incubated for another 3 h.
Cryptococcus neoformans MICs were determined by measuring the absorbance at OD570P600. […]

[2] = system: E. coli ATCC 25922 (control strain); format: cell-based, Escherichia coli; settings: ATCC 25922
Protocol: as §1, §2, §3
(§4) Antifungal assay (Minimum Inhibitory Concentration [MIC]). MIC assay was performed by a broth microdilution plate based method as per CLSI guidelines for antimicrobial susceptibility testing.2 Fungi strains, Table S1, were cultured for 3 days on Yeast ExtractPPeptone Dextrose (YPD) (SigmaPAldrich, Y1500) agar at 30 °C. A yeast suspension of 1x10^6 to 5x10^6 CFU/mL was prepared from five colonies. These stock suspensions were diluted with Yeast Nitrogen Base (YNB) (Becton Dickinson, 233520) broth to a final concentration of 2.5 ×10^3 CFU/mL. All samples, compounds and standards were plated in 96Pwell plates (Corning 3641, NonPbinding Surface [NBS]), by adding 10 µL of 1.28 mg/mL stock solution to each well and 90 µL of media. Then, the samples were serial diluted (1:2) in 12 concentrations across the plate. The standard antifungal ranged from 256

[3] = system: E. coli MB 4902 (ΔlpxC); format: cell-based, Escherichia coli; settings: n = 4
Protocol: as §1, §2, §3, §4

[4] = system: E. coli ATCC 700926 (K12); format: cell-based, Escherichia coli; settings: ATCC 700926
Protocol: as §1, §2, §3, §4

[5] = system: P. aeruginosa ATCC 27853; format: cell-based, Pseudomonas aeruginosa; settings: ATCC 27853
Protocol: as §1, §2, §3, §4

[6] = system: A. baumannii ATCC 19606; format: cell-based, Acinetobacter baumannii; settings: ATCC 19606
Protocol: as §1, §2, §3, §4

[7] = Plasma protein binding, ultrafiltration; format: in vitro ADME; settings: 100% human plasma, read-out: PPB (%) (converted)
Protocol: Plasma protein binding was performed using an ultrafiltration method.[58]
Plasma protein binding assay
Plasma protein binding was performed using an Ultrafiltration method.13 Fresh frozen human plasma was pooled from O Negative (Product number 1274512) blood from the R & D division of the Australian Red Cross Blood Services (Brisbane). Stock solutions (20 mg/mL) of the test compounds were prepared in H2O. Test compounds (40 µg/mL) were incubated in 100 % human plasma at 37 °C for 30 min (1 mL volume). For unfiltered samples, an aliquot (50 µL) was removed, diluted with PBS (50 µL) and quenched with icePcold precipitating solution comprising 0.5 µM carbutamide MS internal standard in acetonitrile : methanol : formic acid (1: 1 : 0.001). Samples were incubated at 4 °C for 30 min then centrifuged at 14000 × g for 8 min, with the clear supernatant transferred to a vial for LC/MS/MS analysis.
For filtered samples, the plasma sample (250 µL) was filtered using Amicon UltraP0.5 Centrifugal Filter Devices 30K NMWL at 14000 × g for 7 min and then an aliquot (50 µL) was processed as described for unfiltered samples. The fraction of unbound compound was calculated by determining the concentration of the filtered sample and the concentration of unfiltered sample. All samples were performed in triplicate with sulfamethoxazole as a […]

SMILES	MIC ([1]; C. albicans ATCC 90028, n = 4) [µg/mL]	MIC [2] [µg/mL]	MIC [3] [µg/mL]	MIC [4] [µg/mL]	MIC [5] [µg/mL]	MIC [6] [µg/mL]	fraction unbound [7]	MIC ([1]; ATCC 90028) [µg/mL]
CC[C@H](C)[C@H](NC(=O)[C@@H](NC(=O)[C@@H]1CCCN1C(=O)[C@@H](NC(=O)[C@@H]1CCCN1C(=O)[C@H](CCCCN)NC(=O)[C@H](CCCCN)NC(=O)[C@H](CO)NC(=O)CN)C(C)C)[C@@H](C)CC)C(=O)N[C@@H](Cc1ccc(O)cc1)C(=O)N[C@H]1CSSC[C@@H](C(=O)N[C@@H](CCC(N)=O)C(=O)N[C@@H](CCCNC(=N)N)C(=O)N[C@@H](CCSC)C(N)=O)NC(=O)[C@H](CCCCN)NC(=O)CNC(=O)[C@H]([C@@H](C)O)NC(=O)[C@H](CCCNC(=N)N)NC(=O)[C@H](CCCNC(=N)N)NC(=O)[C@H](CC(N)=O)NC1=O [thanatin]	64 (≈ 26.3 µM)	8 (≈ 3.29 µM)	2 (≈ 0.822 µM)	8 (≈ 3.29 µM)	256 (≈ 105 µM)	>256	0.08	–
CC(C)[C@@H]1NC(=O)[C@H](CCCNC(=N)N)NC(=O)[C@H](Cc2ccccc2)NC(=O)[C@@H](NC(=O)[C@H](Cc2c[nH]c3ccccc23)NC(=O)[C@H](CCCNC(=N)N)NC(=O)[C@@H](N)CCCNC(=N)N)CSSC[C@@H](C(=O)N[C@@H](CCCNC(=N)N)C(N)=O)NC(=O)[C@H](CCCCN)NC(=O)[C@H](CCCNC(=N)N)NC(=O)[C@H](Cc2ccc(O)cc2)NC(=O)[C@@H]2CSSC[C@H](NC1=O)C(=O)N[C@@H](Cc1ccc(O)cc1)C(=O)N[C@@H](CCCNC(=N)N)C(=O)NCC(=O)N[C@@H](Cc1ccccc1)C(=O)N2 [polyphemusin-1] (HELM PEPTIDE1{R.R.W.C.F.R.V.C.Y.R.G.F.C.Y.R.K.C.R.[am]}$PEPTIDE1,PEPTIDE1,4:R3-17:R3|PEPTIDE1,PEPTIDE1,8:R3-13:R3$$$V2.0)	–	0.5 (≈ 0.204 µM)	0.03 (≈ 0.0122 µM)	0.06 (≈ 0.0244 µM)	2 (≈ 0.815 µM)	0.06 (≈ 0.0244 µM)	0.37	1 (≈ 0.407 µM)
[H][C@]12CSSC[C@]([H])(NC(=O)[C@]([H])([C@@H](C)CC)NC(=O)CNC(=O)[C@H](CCCNC(=N)N)NC(=O)[C@H](Cc3ccc(O)cc3)NC1=O)C(=O)N[C@@H](Cc1ccc(O)cc1)C(=O)N[C@@H](CCCNC(=N)N)C(=O)N[C@@H](CCCNC(=N)N)C(=O)N[C@H](C(=O)N[C@@H](CCCNC(=N)N)C(N)=O)CSSC[C@H](NC(=O)[C@H](Cc1c[nH]c3ccccc13)NC(=O)[C@@H](N)CCCCN)C(=O)N[C@@H](Cc1ccccc1)C(=O)N[C@@H](CCCNC(=N)N)C(=O)N[C@@H](C(C)C)C(=O)N2 [tachyplesin-1] (HELM PEPTIDE1{K.W.C.F.R.V.C.Y.R.G.I.C.Y.R.R.C.R.[am]}$PEPTIDE1,PEPTIDE1,3:R3-16:R3|PEPTIDE1,PEPTIDE1,7:R3-12:R3$$$V2.0)	–	0.06 (≈ 0.0265 µM)	0.016 (≈ 0.00707 µM)	0.03 (≈ 0.0133 µM)	0.25 (≈ 0.11 µM)	0.125 (≈ 0.0552 µM)	0.24	4 (≈ 1.77 µM)
CC(C)[C@@H]1NC(=O)CNC(=O)[C@H](CC(N)=O)NC(=O)[C@H](CCCNC(=N)N)NC(=O)[C@H](Cc2ccc(O)cc2)NC(=O)[C@H](C(C)C)NC(=O)[C@@H]2CSSC[C@H](NC(=O)[C@H](C(C)C)NC(=O)[C@H](CCCNC(=N)N)NC1=O)C(=O)N[C@@H](Cc1ccc(O)cc1)C(=O)N[C@@H](CCCNC(=N)N)C(=O)N[C@@H](CCCNC(=N)N)C(=O)N[C@H](C(=O)N[C@@H](CC(N)=O)C(=O)O)CSSC[C@H](NC(=O)[C@H](Cc1ccccc1)NC(=O)CN)C(=O)N[C@@H](Cc1c[nH]c3ccccc13)C(=O)N[C@@H](Cc1ccc(O)cc1)C(=O)N[C@@H](C(C)C)C(=O)N2 [arenicin-3] (HELM PEPTIDE1{G.F.C.W.Y.V.C.V.Y.R.N.G.V.R.V.C.Y.R.R.C.N}$PEPTIDE1,PEPTIDE1,3:R3-20:R3|PEPTIDE1,PEPTIDE1,7:R3-16:R3$$$V2.0)	–	0.5 (≈ 0.191 µM)	0.125 (≈ 0.0478 µM)	0.25 (≈ 0.0957 µM)	1 (≈ 0.383 µM)	0.5 (≈ 0.191 µM)	0.32	64 (≈ 24.5 µM)
